Source: the supplement of paper PMC10307832

What was measured:
Assay in all cases: relative viability (nuclei count vs DMSO), 5 days (fraction); higher = more cells survive
EMC-BAC-2 = system: EMC-BAC-2
Summary of the method: (§1)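 Nuclei were stained with Hoechst during a one-step fixation (final 0.05% Triton X-100, 1% formaldehyde, 1 ug/ml Hoechst) carried out 5 days after dosing, then counted on 4× images. The cells, lung cancer lines in 1536-well plates, had been dosed by pin tool the day after seeding with one drug alone or a fixed anchor-drug dose plus five library-drug doses (not always all listed) in √10 steps. Relative viability is the nuclei count in treated wells divided by that in vehicle wells, and each value is the median of duplicate plates.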

NCI-H1944 = system: NCI-H1944
Summary of the method: as §1

NCI-H2170 = system: NCI-H2170
Summary of the method: as §1

NCI-H647 = system: NCI-H647
Summary of the method: as §1

NCI-H1755 = system: NCI-H1755
Summary of the method: as §1

NCI-H727 = system: NCI-H727
Summary of the method: as §1

NCI-H1355 = system: NCI-H1355
Summary of the method: as §1

PC-3 [JPC-3] = system: PC-3 [JPC-3]
Summary of the method: as §1

ABC-1 = system: ABC-1
Summary of the method: as §1

SW 1573 = system: SW 1573
Summary of the method: as §1

NCI-H520 = system: NCI-H520
Summary of the method: as §1

LCLC-97TM1 = system: LCLC-97TM1
Summary of the method: as §1

NCI-H2347 = system: NCI-H2347
Summary of the method: as §1

PC-14 = system: PC-14
Summary of the method: as §1

NCI-H1666 = system: NCI-H1666
Summary of the method: as §1

SK-LU-1 = system: SK-LU-1
Summary of the method: as §1

NCI-H2126 = system: NCI-H2126
Summary of the method: as §1

NCI-H1993 = system: NCI-H1993
Summary of the method: as §1

NCI-H2009 = system: NCI-H2009
Summary of the method: as §1

NCI-H460 = system: NCI-H460
Summary of the method: as §1

NCI-H1975 = system: NCI-H1975
Summary of the method: as §1

NCI-H1793 = system: NCI-H1793
Summary of the method: as §1

NCI-H441 = system: NCI-H441
Summary of the method: as §1

O=c1[nH]c2ccccc2n1C1CCN(CCCC(c2ccc(F)cc2)c2ccc(F)cc2)CC1 [Pimozide] + COc1cccc2cc(-c3nc([C@H]4CC[C@H](C(=O)O)CC4)n4ncnc(N)c34)[nH]c12 [OSI-027] (partner 0.5 µM)
relative viability (EMC-BAC-2; first compound 0.08 µM): 0.353 | relative viability (EMC-BAC-2; first compound 0.253 µM): 0.337 | relative viability (EMC-BAC-2; first compound 0.8 µM): 0.342 | relative viability (EMC-BAC-2; first compound 2.53 µM): 0.338 | relative viability (EMC-BAC-2; first compound 8 µM): 0.391 | relative viability (NCI-H1944; first compound 0.08 µM): 0.347 | relative viability (NCI-H1944; first compound 0.253 µM): 0.417 | relative viability (NCI-H1944; first compound 0.8 µM): 0.33 | relative viability (NCI-H1944; first compound 2.53 µM): 0.389 | relative viability (NCI-H1944; first compound 8 µM): 0.37 | relative viability (NCI-H2170; first compound 0.08 µM): 0.617 | relative viability (NCI-H2170; first compound 0.253 µM): 0.628 | relative viability (NCI-H2170; first compound 0.8 µM): 0.681 | relative viability (NCI-H2170; first compound 2.53 µM): 0.692 | relative viability (NCI-H2170; first compound 8 µM): 0.551 | relative viability (NCI-H647; first compound 0.08 µM): 0.656 | relative viability (NCI-H647; first compound 0.253 µM): 0.71 | relative viability (NCI-H647; first compound 0.8 µM): 0.677 | relative viability (NCI-H647; first compound 2.53 µM): 0.611 | relative viability (NCI-H647; first compound 8 µM): 0.404 | relative viability (NCI-H1755; first compound 0.08 µM): 0.678 | relative viability (NCI-H1755; first compound 0.253 µM): 0.687 | relative viability (NCI-H1755; first compound 0.8 µM): 0.678 | relative viability (NCI-H1755; first compound 2.53 µM): 0.597 | relative viability (NCI-H1755; first compound 8 µM): 0.51 | relative viability (NCI-H727; first compound 0.08 µM): 0.717 | relative viability (NCI-H727; first compound 0.253 µM): 0.55 | relative viability (NCI-H727; first compound 0.8 µM): 0.512 | relative viability (NCI-H727; first compound 2.53 µM): 0.652 | relative viability (NCI-H727; first compound 8 µM): 0.54 | relative viability (NCI-H1355; first compound 0.08 µM): 0.326 | relative viability (NCI-H1355; first compound 0.253 µM): 0.398 | relative viability (NCI-H1355; first compound 0.8 µM): 0.305 | relative viability (NCI-H1355; first compound 2.53 µM): 0.357 | relative viability (NCI-H1355; first compound 8 µM): 0.34 | relative viability (PC-3 [JPC-3]; first compound 0.08 µM): 0.338 | relative viability (PC-3 [JPC-3]; first compound 0.253 µM): 0.739 | relative viability (PC-3 [JPC-3]; first compound 0.8 µM): 0.688 | relative viability (PC-3 [JPC-3]; first compound 2.53 µM): 0.746 | relative viability (PC-3 [JPC-3]; first compound 8 µM): 0.685 | relative viability (ABC-1; first compound 0.08 µM): 0.514 | relative viability (ABC-1; first compound 0.253 µM): 0.496 | relative viability (ABC-1; first compound 0.8 µM): 0.422 | relative viability (ABC-1; first compound 2.53 µM): 0.351 | relative viability (ABC-1; first compound 8 µM): 0.354 | relative viability (SW 1573; first compound 0.08 µM): 0.611 | relative viability (SW 1573; first compound 0.253 µM): 0.668 | relative viability (SW 1573; first compound 0.8 µM): 0.602 | relative viability (SW 1573; first compound 2.53 µM): 0.525 | relative viability (SW 1573; first compound 8 µM): 0.307 | relative viability (NCI-H520; first compound 0.08 µM): 0.24 | relative viability (NCI-H520; first compound 0.253 µM): 0.255 | relative viability (NCI-H520; first compound 0.8 µM): 0.235 | relative viability (NCI-H520; first compound 2.53 µM): 0.212 | relative viability (NCI-H520; first compound 8 µM): 0.227 | relative viability (LCLC-97TM1; first compound 0.08 µM): 0.488 | relative viability (LCLC-97TM1; first compound 0.253 µM): 0.363 | relative viability (LCLC-97TM1; first compound 0.8 µM): 0.447 | relative viability (LCLC-97TM1; first compound 2.53 µM): 0.422 | relative viability (LCLC-97TM1; first compound 8 µM): 0.278 | relative viability (NCI-H2347; first compound 0.253 µM): 0.497 | relative viability (NCI-H2347; first compound 0.8 µM): 0.413 | relative viability (NCI-H2347; first compound 2.53 µM): 0.39 | relative viability (NCI-H2347; first compound 8 µM): 0.359 | relative viability (PC-14; first compound 0.08 µM): 0.182 | relative viability (PC-14; first compound 0.253 µM): 0.743 | relative viability (PC-14; first compound 0.8 µM): 0.764 | relative viability (PC-14; first compound 2.53 µM): 0.624 | relative viability (PC-14; first compound 8 µM): 0.621 | relative viability (NCI-H1666; first compound 0.08 µM): 0.874 | relative viability (NCI-H1666; first compound 0.253 µM): 0.832 | relative viability (NCI-H1666; first compound 0.8 µM): 0.772 | relative viability (NCI-H1666; first compound 2.53 µM): 0.699 | relative viability (NCI-H1666; first compound 8 µM): 0.808 | relative viability (SK-LU-1; first compound 0.08 µM): 0.417 | relative viability (SK-LU-1; first compound 0.253 µM): 0.331 | relative viability (SK-LU-1; first compound 0.8 µM): 0.285 | relative viability (SK-LU-1; first compound 2.53 µM): 0.231 | relative viability (SK-LU-1; first compound 8 µM): 0.201 | relative viability (NCI-H2126; first compound 0.08 µM): 0.711 | relative viability (NCI-H2126; first compound 0.253 µM): 0.63 | relative viability (NCI-H2126; first compound 0.8 µM): 0.755 | relative viability (NCI-H2126; first compound 2.53 µM): 0.712 | relative viability (NCI-H2126; first compound 8 µM): 0.744 | relative viability (NCI-H1993; first compound 0.08 µM): 0.562 | relative viability (NCI-H1993; first compound 0.253 µM): 0.572 | relative viability (NCI-H1993; first compound 0.8 µM): 0.539 | relative viability (NCI-H1993; first compound 2.53 µM): 0.581 | relative viability (NCI-H1993; first compound 8 µM): 0.479 | relative viability (NCI-H2009; first compound 0.08 µM): 0.69 | relative viability (NCI-H2009; first compound 0.253 µM): 0.655 | relative viability (NCI-H2009; first compound 0.8 µM): 0.671 | relative viability (NCI-H2009; first compound 2.53 µM): 0.526 | relative viability (NCI-H2009; first compound 8 µM): 0.416 | relative viability (NCI-H460; first compound 0.08 µM): 0.755 | relative viability (NCI-H460; first compound 0.253 µM): 0.66 | relative viability (NCI-H460; first compound 0.8 µM): 0.708 | relative viability (NCI-H460; first compound 2.53 µM): 0.518 | relative viability (NCI-H460; first compound 8 µM): 0.484 | relative viability (NCI-H1975; first compound 0.08 µM): 0.838 | relative viability (NCI-H1975; first compound 0.253 µM): 0.695 | relative viability (NCI-H1975; first compound 0.8 µM): 0.753 | relative viability (NCI-H1975; first compound 2.53 µM): 0.651 | relative viability (NCI-H1975; first compound 8 µM): 0.561 | relative viability (NCI-H1793; first compound 0.253 µM): 0.239 | relative viability (NCI-H1793; first compound 0.8 µM): 0.205 | relative viability (NCI-H1793; first compound 2.53 µM): 0.245 | relative viability (NCI-H1793; first compound 8 µM): 0.115 | relative viability (NCI-H441; first compound 0.08 µM): 0.608 | relative viability (NCI-H441; first compound 0.253 µM): 0.577 | relative viability (NCI-H441; first compound 0.8 µM): 0.478 | relative viability (NCI-H441; first compound 2.53 µM): 0.436 | relative viability (NCI-H441; first compound 8 µM): 0.406
